Results taken from US5378696A, “Rapamycin esters” (American Home Products Corporation, priority 1993, dated 1995).
“Also recorded” adds a separate entry of the source.

How the values were obtained:
pinch skin graft = test: survival time of pinch skin graft; type: in vivo, mouse (male DBA/2 donors, male BALB/c recipients); settings: intraperitoneally; mean graft survival time ± S.D.
Description: (§1) Immunosuppressive activity was evaluated in an in vitro standard pharmacological test procedure to measure lymphocyte proliferation (LAF) and in two in vivo standard pharmacological test procedures. The first in vivo procedure was a popliteal lymph node (PLN) test procedure which measured the effect of compounds of this invention on a mixed lymphocyte reaction and the second in vivo procedure evaluated the survival time of a pinch skin graft.
The second in vivo test procedure is designed to determine the survival time of pinch skin graft from male DBA/2 donors transplanted to male BALB/c recipients. The method is adapted from Billingham R. E. and Medawar P. B., J. Exp. Biol. 28:385-402, (1951). Briefly, a pinch skin graft from the donor is grafted on the dorsum of the recipient as a homograft, and an autograft is used as control in the same region. […] Untreated recipients serve as rejection control. The graft is monitored daily and observations are recorded until the graft becomes dry and forms a blackened scab. This is considered as the rejection day. The mean graft survival time (number of days±S.D.) of the drug treatment group is compared with the control group.

[1] = system: 5 strains of Candida albicans; test: antifungal plate test procedure, 5 strains (overall); type: cell-based; settings: not evaluated; considered because of structural similarity
Description: The following represents the typical procedure used. Compound to be tested was placed on sterile dried 1/4" plate disks, and allowed to dry. Agar plates were seeded with fungi and allowed to solidify. The impregnated disks were placed on the seeded Agar surface and incubated for the time required for the particular culture. Results are expressed in MIC (μg/ml) to inhibit growth.

[2] = system: lymphocyte proliferation, cells from the thymus of normal BALB/c mice (PHA and IL-1); test: comitogen-induced thymocyte proliferation procedure (LAF); type: cell-based
Description: as §1
Briefly, cells from the thymus of normal BALB/c mice are cultured for 72 hours with PHA and IL-1 and pulsed with tritiated thymidine during the last six hours. […] Cells are harvested and incorporated; radioactivity is determined. inhibition of lymphoproliferation is assessed in percent change in counts per minute from non-drug treated controls. The results are expressed by the following ratio: [formula]

[3] = system: mixed lymphocyte reaction, popliteal lymph node; test: popliteal lymph node (PLN) test procedure, in vivo mixed lymphocyte reaction; parameters: species or system mouse (BALB/c donors, C3H recipients); settings: p.o. daily Day 0 to Day 4, carboxymethyl cellulose vehicle; rapamycin 1.0
Description: as §1
A mixed lymphocyte reaction (MLR) occurs when lymphoid cells from genetically distinct animals are combined in tissue culture. Each stimulates the other to undergo blast transformation which results in increased DNA synthesis that can be quantified by the incorporation of tritiated thymidine. Since stimulating a MLR is a function of disparity at Major Histocompatibility antigens, an in vivo popliteal lymph node (PLN) test procedure closely correlates to host vs. graft disease. Briefly, irradiated spleen cells from BALB/c donors are injected into the right hind foot pad of recipient C3H mice. The drug is given daily, p.o. from Day 0 to Day 4. On Day 3 and Day 4, tritiated thymidine is given i.p., b.i.d. On Day 5, the hind popliteal lymph nodes are removed and dissolved, and radioactivity counted. […] Percent suppression is calculated using the non-drug treated animals as allogenic control.

Candida albicans = settings: in vitro and in vivo; cited from earlier work
[4] = in vivo; cited from earlier work
transplant rejection = settings: cited from earlier work

In the case of CO[C@H]1C[C@@H]2CC[C@@H](C)[C@@](O)(O2)C(=O)C(=O)N2CCCC[C@H]2C(=O)O[C@H]([C@H](C)C[C@@H]2CC[C@@H](OC(=O)CCC(=O)OCc3ccc(C(F)(F)F)cc3)[C@H](OC)C2)CC(=O)[C@H](C)/C=C(\C)[C@@H](O)[C@@H](OC)C(=O)[C@H](C)C[C@H](C)/C=C/C=C/C=C/1C [Example 13, Rapamycin-42-(4-trifluoromethylbenzyl)succinate], the “Skin Graft (days + SD), mean graft survival time” value (pinch skin graft) is reported as 10.6 ± 0.9 days, the antifungal activity [1] is reported as “considered to have antifungal activity” and the “LAF (ratio)” value ([2]; ratio, thymocytes 72 hours with PHA and IL-1, rapamycin 1.0) is reported as 2.11.

In the case of CO[C@H]1C[C@@H]2CC[C@@H](C)[C@@](O)(O2)C(=O)C(=O)N2CCCC[C@H]2C(=O)O[C@H]([C@H](C)C[C@@H]2CC[C@@H](O)[C@H](OC)C2)CC(=O)[C@H](C)/C=C(\C)[C@@H](O)[C@@H](OC)C(=O)[C@H](C)C[C@H](C)/C=C/C=C/C=C/1C [Rapamycin], the “PLN (ratio)” value [3] is given as 1.0, the antifungal activity (Candida albicans) is given as “found to have antifungal activity, particularly against Candida albicans, both in vitro and in vivo” and the “usefulness in preventing or treating disease” value [4] is given as “systemic lupus erythematosus; also recorded: pulmonary inflammation; also recorded: insulin dependent diabetes mellitus; also recorded: smooth muscle cell proliferation and intimal thickening following vascular injury; also recorded: ocular inflammation”. The immunosuppressive effect (transplant rejection) was “immunosuppressive effects”.

With COC(=O)CCC(=O)O[C@@H]1CC[C@@H](C[C@@H](C)[C@@H]2CC(=O)[C@H](C)/C=C(\C)[C@@H](O)[C@@H](OC)C(=O)[C@H](C)C[C@H](C)/C=C/C=C/C=C(\C)[C@@H](OC)C[C@@H]3CC[C@@H](C)[C@@](O)(O3)C(=O)C(=O)N3CCCC[C@H]3C(=O)O2)C[C@H]1OC [Example 12, Rapamycin-42-monomethylsuccinate] the “Skin Graft (days + SD), mean graft survival time” value (pinch skin graft) was 10.8 ± 0.4 days, the antifungal activity [1] was “considered to have antifungal activity” and the inhibition at 0.1 µM ([2]; Mus musculus, Lymphocyte, percent inhibition at 100 nM) was 97%.
